Assay results from patent US20100221502A1, “Anthrapyridone Compound and Salt Thereof, Magenta Ink Composition Containing the Anthrapyridone Compound, and Colored Article” (priority 2005, published 2010).

What was measured:
Format in all cases: physicochemical
[1] = Ozone gas fastness test of recorded image; details: any of glossy papers of CANON INC. and SEIKO-EPSON CORPORATION
Method: Using an ink jet printer (manufactured by Canon Inc., trade name: Pixus 860i), inkjet recording was performed on glossy paper (manufactured by Canon Inc., trade name: Professional Photo Paper PR-101) having an ink image-receiving layer containing porous white inorganic substance and photo paper (glossy) manufactured by SEIKO-EPSON CORPORATION. In inkjet recording, an image pattern was made to obtain gradations of several stages in printing density and a print was made. Using an ozone weatherometer (manufactured by Suga Test Instruments Co., Ltd.), pieces of printed testing paper of glossy paper manufactured by Canon, Inc. and glossy paper manufactured by SEIKO-EPSON CORPORATION were left for 3 hours under the circumstances of an ozone concentration of 12 ppm, a humidity of 60% RH and a temperature of 24° C. Color difference (ΔE) before and after the test was measured and evaluation was performed on 3 levels. [formula] [formula] [formula]

[2] = Moisture fastness test of recorded image; design: key: ∘: Bleed is not observed.; Δ: Bleed is observed on small degree.; ×: Bleed is observed on large degree; details: 168 hours, 30° C., 85% RH, bleed by visual observation
Method: (§1) Using an ink jet printer (manufactured by Canon Inc., trade name: Pixus 860i), inkjet recording was performed on glossy paper (manufactured by Canon Inc., trade name: Professional Photo Paper PR-101) having an ink image-receiving layer containing porous white inorganic substance and photo paper (glossy) manufactured by SEIKO-EPSON CORPORATION. In inkjet recording, an image pattern was made to obtain gradations of several stages in printing density and a print was made.
Using a thermo-hygrostat (manufactured by OHKEN, Co., LTD), pieces of printed testing paper of glossy paper manufactured by Canon, Inc. and glossy paper manufactured by SEIKO-EPSON CORPORATION were left for 168 hours at a temperature of 30° C. and a humidity of 85% RH. Bleed property before and after the test was determined by visual observation and evaluated on 3 levels.
∘: Bleed is not observed.
Δ: Bleed is observed on small degree.
×: Bleed is observed on large degree.

[3] = Xenon light fastness test of recorded image; details: any of glossy papers of CANON INC. and SEIKO-EPSON CORPORATION
Method: as §1
Using a xenon weatherometer Ci4000 (manufactured by ATLAS Electric Devices Co.), pieces of printed testing paper of glossy paper manufactured by Canon, Inc. and glossy paper manufactured by SEIKO-EPSON CORPORATION, on which an air layer was provided and a glass plate having a thickness of 2 mm was set up, were irradiated for 50 hours at an illuminance of 0.36 W/m^2 under the circumstances of a humidity of 60% RH and a temperature of 24° C. Color difference (ΔE) before and after the test was measured and the evaluation was performed on 3 levels.

[4] = Evaluation of hue on glossy paper (L*, a*, b*, C* of inkjet recorded image); design: key to Lightness L*: CIELAB L* lightness value; key to Chromaticity a*: CIELAB a* chromaticity value; key to Chromaticity b*: CIELAB b* chromaticity value; details: for Chroma C*: C*=((a*)^2+(b*)^2)^1/2; for Chromaticity a* / Chromaticity b* / Lightness L*: ink with 6.0 parts compound
Text: The compound (Compound Example No. 1) obtained in the above Example 1 was used to prepare a solution of the composition shown in the following Table 2, which was filtrated with a 0.45 μm membrane filter for removing insoluble matter to obtain each water-based ink composition for inkjet recording. And ion-exchanged water was used as water. In addition, the pH of the ink composition was adjusted to pH=8 to 10 with a 25% caustic soda aqueous solution, and water was further added so that the whole weight was 100 parts. Example 5 is the test using the compound obtained in Example 1.
as §1
For the hue and vividness of recorded image, printed recording paper was measured using a Color Calibration Systems (trade name: GRETAG SPM50, manufactured by GretagMacbeth AG) to calculate values of L*, a* and b*, and chroma (C*) showing vividness was calculated from chromaticity (a*, b*) by C*=((a*)^2+(b*)^2)^1/2. The hue was evaluated by comparing with a sample of standard magenta in Japan Color manufactured by JPMA (Industry Association: Japan Printing Machinery Association).
In this connection, paper used for standard magenta in Japan Color was Japan Color Standard Paper.

[5] = Glossy paper manufactured by CANON INC.
[6] = Glossy paper manufactured by SEIKO-EPSON CORPORATION
[7] = Glossy paper manufactured by Canon Inc.

Ozone gas fastness (in words) [1]	Moisture fastness [2, 5]	Moisture fastness [2, 6]	Light fastness (in words) [3]	Chroma C* [4, 7]	Chromaticity a* [4, 7]	Chromaticity b* [4, 7]	Lightness L* [4, 7]	Chroma C* [4, 6]	Chromaticity a* [4, 6]	Chromaticity b* [4, 6]	Lightness L* [4, 6]	SMILES
a drawback in ozone gas fastness	∘	∘	has a problem in light fastness	81.3	81.0	−6.7	49.8	80.4	79.9	−9.5	49.5	Cn1c(=O)cc2c3c(c(Nc4cc(Nc5nc(O)nc(Nc6cc(S(=O)(=O)O)ccc6S(=O)(=O)O)n5)ccc4S(=O)(=O)O)ccc31)C(=O)c1ccccc1-2 [Comparative Example 1, reference compound]
	∘	∘		78.6	78.7	1.0	54.8	77.6	77.4	−2.6	57.2	O=C(O)c1cc(Nc2nc(O)nc(Nc3cc(Nc4cc(Oc5ccc(-c6ccc(S(=O)(=O)O)cc6)cc5S(=O)(=O)O)c5[nH]c(=O)c(C(=O)c6cccc(S(=O)(=O)O)c6)c6c5c4C(=O)c4ccccc4-6)c(S(=O)(=O)O)cc3S(=O)(=O)O)n2)cc(C(=O)O)c1 [Example 7 (No. 11)]
	∘	∘		88.2	88.2	−2.9	57.8	82.3	82.3	−1.7	56.1	O=C(c1cccc(S(=O)(=O)O)c1)c1c2c3c(c(Nc4cc(Nc5nc(O)nc(Nc6ccccc6S(=O)(=O)O)n5)c(S(=O)(=O)O)cc4S(=O)(=O)O)cc(Oc4ccc(-c5ccc(S(=O)(=O)O)cc5)cc4S(=O)(=O)O)c3[nH]c1=O)C(=O)c1ccccc1-2 [Example 5 (No. 1)]
	∘	∘		82.1	82.1	0.5	55.4	80.5	80.6	−2.2	56.1	O=C(O)c1ccccc1Nc1nc(O)nc(Nc2cc(Nc3cc(Oc4ccc(-c5ccc(S(=O)(=O)O)cc5)cc4S(=O)(=O)O)c4[nH]c(=O)c(C(=O)c5cccc(S(=O)(=O)O)c5)c5c4c3C(=O)c3ccccc3-5)c(S(=O)(=O)O)cc2S(=O)(=O)O)n1 [Example 6 (No. 8)]
